This is an account of results in patent US20260085077A1, “HETEROCYCLIC DERIVATIVES AS JANUS KINASE INHIBITORS” (CHIESI FARMACEUTICI S.P.A., priority 2022, published 2026).

The test system of the experiment is IL-13 induced pSTAT6 in BEAS-2B human cell line. Kind of experiment: Inhibition of IL-13 induced pSTAT6 in BEAS. The experiment is classed as cell-based. The conditions noted are these: IL-13 induced pSTAT6, BEAS-2B cells, ELISA. On the procedure: BEAS-2B human cell line was seeded (100.000 cells/well) and incubated for 48 h at 37° C., 5% CO2, 95% humidity. Compounds were added and incubated 30 min followed by IL-13 as trigger. After 30 min incubation, cells were lysed and pSTAT6 determined by Fastscan phospho-stat6 (Tyr641) sandwich ELISA kit (cell signaling). Inhibitors were tested at 11 consecutive […] dilutions starting from 10 μM (10 μM-40 pM) in duplicate. Calculation of IC50 data, curves and QC analysis were made using Excel tools and GraphPadPrism software. QC criteria parameters: Z′≥0.35, Hill Slope range 0.5 to 5, S:B>2.
In general terms: An ELISA detects its analyte on a solid surface through an enzyme-linked reagent.
The IC50 is the concentration needed to halve the response being measured. A high value points to lower potency. The compound `COc1cc2c(cc1-n1nc(C(=O)NCCN3CCC(C(=O)N(C)C)CC3)c3cnc(-c4cnn5cccnc45)cc31)OCCN2` [Example 53, N-(2-(4-(dimethylcarbamoyl)piperidin-1-yl)ethyl)-1-(6-methoxy-3,4-dihydro-2H-benzo[b][1,4]oxazin-7-yl)-6-(pyrazolo[1,5-a]pyrimidin-3-yl)-1H-pyrazolo[4,3-c]pyridine-3-carboxamide] had a 50% inhibitory concentration (IC50) of 0.00501 to 0.0501 µM.
With `COc1cc2c(cc1-n1nc(NCCN(C)C)c3cnc(-c4cnn5cccnc45)cc31)OCCN2` [Example 54, N1-(1-(6-methoxy-3,4-dihydro-2H-benzo[b][1,4]oxazin-7-yl)-6-(pyrazolo[1,5-a]pyrimidin-3-yl)-1H-pyrazolo[4,3-c]pyridin-3-yl)-N2,N2-dimethylethane-1,2-diamine] the figure was 0.00501 to 0.0501 µM; with `CNc1nn(-c2cc3c(cc2OC)NCCO3)c2cc(-c3cnn4cccnc34)ncc12` [Example 55, 1-(6-methoxy-3,4-dihydro-2H-benzo[b][1,4]oxazin-7-yl)-N-methyl-6-(pyrazolo[1,5-a]pyrimidin-3-yl)-1H-pyrazolo[4,3-c]pyridin-3-amine], 0.00501 to 0.0501 µM; with `COC(=O)Nc1nn(-c2cc3c(cc2OC)NCCO3)c2cc(-c3cnn4cccnc34)ncc12` [Example 56, methyl (1-(6-methoxy-3,4-dihydro-2H-benzo[b][1,4]oxazin-7-yl)-6-(pyrazolo[1,5-a]pyrimidin-3-yl)-1H-pyrazolo[4,3-c]pyridin-3-yl)carbamate], 0.00501 to 0.0501 µM.
The figure for `COc1cc2c(cc1-n1nc(NC(=O)OCCN(C)C)c3cnc(-c4cnn5cccnc45)cc31)OCCN2` [Example 57, 2-(dimethylamino)ethyl (1-(6-methoxy-3,4-dihydro-2H-benzo[b][1,4]oxazin-7-yl)-6-(pyrazolo[1,5-a]pyrimidin-3-yl)-1H-pyrazolo[4,3-c]pyridin-3-yl)carbamate] is 0.00501 to 0.0501 µM; for `COc1cc2c(cc1-n1nc(NC(=O)OCCN3CCOCC3)c3cnc(-c4cnn5cccnc45)cc31)OCCN2` [Example 58, 2-morpholinoethyl (1-(6-methoxy-3,4-dihydro-2H-benzo[b][1,4]oxazin-7-yl)-6-(pyrazolo[1,5-a]pyrimidin-3-yl)-1H-pyrazolo[4,3-c]pyridin-3-yl)carbamate] it is 0.00501 to 0.0501 µM.
The figure for `COc1cc2c(cc1-n1nc(NC(=O)OCCCN3CCN(C)CC3)c3cnc(-c4cnn5cccnc45)cc31)OCCN2` [Example 59, 3-(4-methylpiperazin-1-yl)propyl (1-(6-methoxy-3,4-dihydro-2H-benzo[b][1,4]oxazin-7-yl)-6-(pyrazolo[1,5-a]pyrimidin-3-yl)-1H-pyrazolo[4,3-c]pyridin-3-yl)carbamate] is 0.00501 to 0.0501 µM.
Compound `COc1cc2c(cc1-n1nc(NC(=O)OCCCN(C)C)c3cnc(-c4cnn5cccnc45)cc31)OCCN2` [Example 60, 3-(dimethylamino)propyl (1-(6-methoxy-3,4-dihydro-2H-benzo[b][1,4]oxazin-7-yl)-6-(pyrazolo[1,5-a]pyrimidin-3-yl)-1H-pyrazolo[4,3-c]pyridin-3-yl)carbamate] had a half-maximal inhibitory concentration (IC50) of 0.00501 to 0.0501 µM.
The compound `COc1cc2c(cc1-n1nc(NC(=O)OCCCN3CCOCC3)c3cnc(-c4cnn5cccnc45)cc31)OCCN2` [Example 61, 3-morpholinopropyl (1-(6-methoxy-3,4-dihydro-2H-benzo[b][1,4]oxazin-7-yl)-6-(pyrazolo[1,5-a]pyrimidin-3-yl)-1H-pyrazolo[4,3-c]pyridin-3-yl)carbamate] had an IC50 of 0.00501 to 0.0501 µM.
The figure for `COc1cc2c(cc1-n1nc(NC(=O)OCCN3CCS(=O)(=O)CC3)c3cnc(-c4cnn5cccnc45)cc31)OCCN2` [Example 62, 2-(1,1-dioxidothiomorpholino)ethyl (1-(6-methoxy-3,4-dihydro-2H-benzo[b][1,4]oxazin-7-yl)-6-(pyrazolo[1,5-a]pyrimidin-3-yl)-1H-pyrazolo[4,3-c]pyridin-3-yl)carbamate] is 0.00501 to 0.0501 µM; for `COc1cc2c(cc1-n1nc(NC(=O)OCCN3CCN(C)CC3)c3cnc(-c4cnn5cccnc45)cc31)OCCN2` [Example 63, 2-(4-methylpiperazin-1-yl)ethyl (1-(6-methoxy-3,4-dihydro-2H-benzo[b][1,4]oxazin-7-yl)-6-(pyrazolo[1,5-a]pyrimidin-3-yl)-1H-pyrazolo[4,3-c]pyridin-3-yl)carbamate] it is 0.00501 to 0.0501 µM.
Compound `COc1cc2c(cc1-n1nc(NC(=O)OCCN3CCSCC3)c3cnc(-c4cnn5cccnc45)cc31)OCCN2` [Example 64, 2-thiomorpholinoethyl (1-(6-methoxy-3,4-dihydro-2H-benzo[b][1,4]oxazin-7-yl)-6-(pyrazolo[1,5-a]pyrimidin-3-yl)-1H-pyrazolo[4,3-c]pyridin-3-yl)carbamate] showed a half-inhibitory concentration (IC50) of 0.00501 to 0.0501 µM.
The figure for `COc1cc2c(cc1-n1nc(NC(=O)OC[C@@H]3CN(C)CCO3)c3cnc(-c4cnn5cccnc45)cc31)OCCN2` [Example 65, (S)-(4-methylmorpholin-2-yl)methyl (1-(6-methoxy-3,4-dihydro-2H-benzo[b][1,4]oxazin-7-yl)-6-(pyrazolo[1,5-a]pyrimidin-3-yl)-1H-pyrazolo[4,3-c]pyridin-3-yl)carbamate] is 0.00501 to 0.0501 µM; for `COc1cc2c(cc1-n1nc(NC(=O)OCCN3CCCCC3)c3cnc(-c4cnn5cccnc45)cc31)OCCN2` [Example 66, 2-(piperidin-1-yl)ethyl (1-(6-methoxy-3,4-dihydro-2H-benzo[b][1,4]oxazin-7-yl)-6-(pyrazolo[1,5-a]pyrimidin-3-yl)-1H-pyrazolo[4,3-c]pyridin-3-yl)carbamate] it is 0.00501 to 0.0501 µM; for `COc1cc2c(cc1-n1nc(NC(=O)OCCSC3CCOC3=O)c3cnc(-c4cnn5cccnc45)cc31)OCCN2` (stereo not shown) [Example 67, 2-((2-oxotetrahydrofuran-3-yl)thio)ethyl (1-(6-methoxy-3,4-dihydro-2H-benzo[b][1,4]oxazin-7-yl)-6-(pyrazolo[1,5-a]pyrimidin-3-yl)-1H-pyrazolo[4,3-c]pyridin-3-yl)carbamate] it is 0.00501 to 0.0501 µM.
Turning to `COc1cc2c(cc1-n1nc(NC(=O)OCCNC3CCOC3=O)c3cnc(-c4cnn5cccnc45)cc31)OCCN2` (stereo not shown) [Example 68, 2-((2-oxotetrahydrofuran-3-yl)amino)ethyl (1-(6-methoxy-3,4-dihydro-2H-benzo[b][1,4]oxazin-7-yl)-6-(pyrazolo[1,5-a]pyrimidin-3-yl)-1H-pyrazolo[4,3-c]pyridin-3-yl)carbamate], the IC50 was 0.00501 to 0.0501 µM.
With `COc1cc2c(cc1-n1nc(NC(=O)OCCN(C)C)c3cnc(-c4cnn5cccnc45)cc31)CCCN2` [Example 69, 2-(dimethylamino)ethyl (1-(7-methoxy-1,2,3,4-tetrahydroquinolin-6-yl)-6-(pyrazolo[1,5-a]pyrimidin-3-yl)-1H-pyrazolo[4,3-c]pyridin-3-yl)carbamate] the figure was 0.00501 to 0.0501 µM; with `COc1cc2c(cc1-n1nc(NC(=O)NCCCN3CCOCC3)c3cnc(-c4cnn5cccnc45)cc31)OCCN2` [Example 70, 1-(1-(6-methoxy-3,4-dihydro-2H-benzo[b][1,4]oxazin-7-yl)-6-(pyrazolo[1,5-a]pyrimidin-3-yl)-1H-pyrazolo[4,3-c]pyridin-3-yl)-3-(3-morpholinopropyl)urea], 0.00501 to 0.0501 µM.
The compound `COc1cc2c(cc1-n1nc(C)c3cnc(-c4cnn5cccnc45)cc31)C1(CC1)C(=O)N2` [Example 71, 6′-methoxy-5′-(3-methyl-6-(pyrazolo[1,5-a]pyrimidin-3-yl)-1H-pyrazolo[4,3-c]pyridin-1-yl)spiro[cyclopropane-1,3′-indolin]-2′-one] gave a 50% inhibitory concentration (IC50) of 0.00501 to 0.0501 µM.
